Measured values from patent publication US20200069686A1, “N-SUBSTITUTED INDOLE DERIVATIVES” (Idorsia Pharmaceuticals Ltd, priority 2017, published 2020).

What was measured:
Format in all cases: cell-based
PTGER2 (EP2) = target: T1, PTGER2 (EP2) (Homo sapiens, UniProt P43116); assay: hEP2 b-arrestin assay (PathHunter HEK 293 PTGER2 b-arrestin cells); settings: PGE2 5 μM (EC80) as agonist, antagonistic activity, read-out: hEP2 beta-arrestin IC50
T1 construct: host or cells: HEK 293 (PathHunter PTGER2 b-arrestin cell line)
T1 sequence (P43116 whole entry): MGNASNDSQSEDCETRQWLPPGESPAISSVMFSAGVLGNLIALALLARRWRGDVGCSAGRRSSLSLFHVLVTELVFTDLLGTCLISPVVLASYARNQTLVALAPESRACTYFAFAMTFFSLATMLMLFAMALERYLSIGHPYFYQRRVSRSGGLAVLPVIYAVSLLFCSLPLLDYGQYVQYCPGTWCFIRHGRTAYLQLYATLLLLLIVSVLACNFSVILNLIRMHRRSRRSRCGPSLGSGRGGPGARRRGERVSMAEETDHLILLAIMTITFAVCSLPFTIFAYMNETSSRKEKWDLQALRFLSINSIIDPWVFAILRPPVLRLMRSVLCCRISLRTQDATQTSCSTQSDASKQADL
Description: (§1) The antagonistic activities of the compounds of formula (I) on the EP2 and EP4 receptors are determined in accordance with the following experimental methods.
(§2) The assay is using the PathHunter™ HEK 293 PTGER2 and PTGER4 b-arrestin cell lines from DiscoverX. The system is based on the Enzyme Fragment Complementation Technology. Two complementing fragments of the b-galactosidase enzyme are expressed within stably transfected cells. The larger portion of b-gal, termed EA for Enzyme Acceptor, is fused to the C-terminus of b-arrestin 2. The smaller fragment, termed ProLink™ tag, is fused to PTGER2 (EP2) or PTRGER4 (EP4) at the C-terminus. Upon activation, b-arrestin is recruited which forces the interaction of ProLink and EA, allowing complementation of the two fragments of b-gal and the formation of a functional enzyme which is capable of hydrolysing the substrate and generating a chemiluminescent signal.
(§3) The HEK 293 PTGER2 b-arrestin cells (DiscoverX 93-021-4C1) are detached from culture dishes with a cell dissociation buffer (Invitrogen, 13151-014), and collected in growing medium (GM: DMEM+Glutamax-I (Invitrogen 32430)/10% FCS, 1% Penicilin/streptomycin). 5000 cells per well of a 384 well plate (white with white bottom Greiner 781080) are seeded in 20 ul per well of GM. Plate is incubated at 37° C., 5% CO2 for 24 hours.
(§4) Stock solutions of test compounds are made at a concentration of 10 mM in DMSO, and serially diluted in DMSO to concentrations required for inhibition dose response curves (tested concentration range 10 μM-2 nM or 1 μM-0.2 nM).
PGE2 (Cayman 14010, stock solution: 10 mM in DMSO) is used as agonist at 5 μM final concentration, corresponding to EC80.
Five microliters of diluted compounds are transferred into the assay plate. Plate is pre-incubated 15 minutes at 37° C. Then five microliters of PGE2 (final conc. 5 μM) are transferred into the assay plate. Plate is incubated 120 minutes at 37° C.
(§5) PathHunter Glo Detection Kit components are thawed and mix according to manufacturers instructions: 1 part Galacton Star Substrate with 5 parts Emerald II™ Solution, and 19 parts of PathHunter Cell Assay Buffer, respectively. Twelve μL of reagent are transferred to the assay plate and incubate for 1 hour at room temperature in the dark. Luminescence counts are read on a BMG Fluostar Optima reader according to manufacturers instructions.
(§6) For each compound concentration calculate of the percentage of activity compared to DMSO control value as average ±STDEV. (each concentration is measured in duplicate)
(§7) IC50 values and curves are generated with XLfit software (IDBS) using Dose-Response One Site model 203. When compounds were measured multiple times, mean values are given.

EP2 = target: T2, EP2 (Homo sapiens, UniProt P43116); assay: hEP2 cAMP assay (SF295 glioblastoma cells, HTRF cAMP); settings: PGE2 75 nM (EC80) as agonist, antagonistic activity
T2 construct: SF295 glioblastoma cells express high endogenous EP2 and no EP4; endogenous in cells; host or cells: SF295 glioblastoma cells (NCI No. 0503170)
T2 sequence (P43116 whole entry): as above
Description: (§8) The antagonistic activities of the compounds of formula (I) on the EP2 and EP4 receptors are also determined in accordance with the following experimental method.
(§9) Human tumor cell lines expressing endogenously either EP4 or EP2 are used and cAMP accumulation in cells upon PGE2 stimulation is monitored. SF295 glioblastoma cells express high endogenous EP2 and no EP4,whereas BT549 breast cancer cells, express high endogenous EP4 levels and very low EP2 levels.
(§10) As a detection method for cAMP the HTRF (homogeneous time resolved fluorescence) Cisbio kit (HTRF cAMP dynamic 2 kit 20′000 tests Cisbio Cat. #62AM4PEC) was used, which is based on a competitive immunoassay using a Cryptate-labeled anti-cAMP antibody and d2-labeled cAMP. Native cAMP produced by cells or unlabeled cAMP (for the standard curve) compete with exogenously added d2-labeled cAMP (acceptor) for binding to monoclonal anti-cAMP-Eu3+ Cryptate (donor). A FRET signal (Fluorescence Resonance Energy Transfer) is obtained only if the labeled anti-cAMP antibody binds the d2 labelled cAMP, thus the specific signal (i.e. energy transfer) is inversely proportional to the concentration of cAMP in the standard or sample.
(§11) The SF295 cells (NCl/No. 0503170) are detached from culture dishes with a cell dissociation buffer (Invitrogen, 13151-014), and collected in growing medium (GM: RPM11640 (Invitrogen 21875)/10% FCS, 1% Penicilin/streptomycin). Cells are counted washed and resuspended in assay buffer (AB; HBSS, 20 mM HEPES, 0.2% BSA; 2 mM IBMX). 4′000 cells in 5 μL of AB are seeded per well of a small volume 384 well plate (black with flat bottom, Greiner 784076).
Stock solutions of test compounds are made at a concentration of 10 mM in DMSO, and serially diluted in DMSO to concentrations required for inhibition dose response curves (tested concentration range 30 μM-0.4 nM; […] or 1 μM-0.01 nM).
PGE2 (Cayman 14010, stock solution: […] in DMSO) is used as agonist at 75 nM final concentration, corresponding to EC80.
(§12) 2.5 μL of diluted compounds are transferred into the assay plate. […] Five I of each donor (anti-cAMP cryptate) and acceptor (cAMP-d2) are added and the plate is incubated another hour at room temperature in the dark and then read using a BMG LABTECH PHERAstar reader (Excitation: 337 nm, Emission: 620 and 665 nm).
(§13) The obtained Delta F (fluorescence) values (665 nm/620 nM) are converted into % cAMP values using the measurements of the cAMP calibrator provided in the kit. For each compound concentration the percentage of cAMP compared to DMSO control value as average ±STDEV (each concentration is measured in duplicate) is calculated.
as §7

PTRGER4 (EP4) = target: T3, PTRGER4 (EP4) (Homo sapiens, UniProt P35408); assay: hEP4 b-arrestin assay (PathHunter HEK 293 PTGER4 b-arrestin cells); settings: PGE2 20 nM (EC80) as agonist, antagonistic activity, read-out: hEP4 beta-arrestin IC50
T3 construct: host or cells: HEK 293 (PathHunter PTGER4 b-arrestin cell line)
T3 sequence (P35408 whole entry): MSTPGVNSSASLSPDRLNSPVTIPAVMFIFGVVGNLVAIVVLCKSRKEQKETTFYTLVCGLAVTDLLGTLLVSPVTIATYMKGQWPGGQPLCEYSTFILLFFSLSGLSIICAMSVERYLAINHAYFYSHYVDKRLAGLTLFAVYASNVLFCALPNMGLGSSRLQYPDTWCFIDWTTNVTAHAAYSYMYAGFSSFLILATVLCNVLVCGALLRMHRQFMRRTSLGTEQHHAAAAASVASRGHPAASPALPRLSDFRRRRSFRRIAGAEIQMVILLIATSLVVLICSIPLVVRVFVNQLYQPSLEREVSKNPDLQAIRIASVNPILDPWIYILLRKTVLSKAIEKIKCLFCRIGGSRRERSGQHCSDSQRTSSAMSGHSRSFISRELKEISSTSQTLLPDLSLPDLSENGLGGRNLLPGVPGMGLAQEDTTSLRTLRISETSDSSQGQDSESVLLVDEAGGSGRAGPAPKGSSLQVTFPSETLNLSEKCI
Description: as §1, §2
as §3, with “293 PTGER4” for “293 PTGER2”, “(DiscoverX 93-030-4C1)” for “(DiscoverX 93-021-4C1)”, “20 μl” for “20 ul”
as §4
PGE2 (Cayman 14010, stock solution: 100 uM in DMSO) is used as agonist at 20 nM final concentration, corresponding to EC80.
Five microliters of diluted compounds are transferred into the assay plate. Plate is pre-incubated 15 minutes at 37° C. Then five microliters of PGE2 (final conc. 20 nM) are transferred into the assay plate. Plate is incubated 120 minutes at 37° C.
as §5, with “I” for “μL”
as §6, §7

EP4 = target: T4, EP4 (Homo sapiens, UniProt P35408); assay: hEP4 cAMP assay (BT549 breast cancer cells, HTRF cAMP); settings: PGE2 6 nM (EC80) as agonist, antagonistic activity
T4 construct: BT549 breast cancer cells, express high endogenous EP4 levels and very low EP2 levels; endogenous in cells; host or cells: BT549 breast cancer cells (NCI No. 0507282)
T4 sequence (P35408 whole entry): as above
Description: as §8, §9, §10
as §11, with “BT549” for “SF295”, “0507282)” for “0503170)”
Stock solutions of test compounds are made at a concentration of 10 mM in DMSO, and serially diluted in DMSO to concentrations required for inhibition dose response curves (tested concentration range 30 μM-0.4 nM; 30 μM-0.015 nM or 1 μM-0.01 nM).
PGE2 (Cayman 14010, stock solution: 6 μM in DMSO) is used as agonist at 6 nM final concentration, corresponding to EC80.
as §12, with “μL” for “I”
as §13, §7

| IC50 (PTGER2 (EP2)) [nM] | IC50 (EP2) [nM] | IC50 (PTRGER4 (EP4)) [nM] | IC50 (EP4) [nM] | Compound |
| --- | --- | --- | --- | --- |
| 13 | 15 | 5970 | 5720 | Cc1cc2ccccc2n1CCNc1cc(-c2ccc(C(=O)O)cc2)ncn1 [Example 1, 4-{6-[2-(2-Methyl-indol-1-yl)-ethylamino]-pyrimidin-4-yl}-benzoic acid] |
| 11 | 10 | 2060 | 1350 | N#Cc1cc2ccccc2n1CCNc1cc(-c2ccc(C(=O)O)cc2)ncn1 [Example 2, 4-{6-[2-(2-Cyano-indol-1-yl)-ethylamino]-pyrimidin-4-yl}-benzoic acid] |
| 8 | 5 | 11000 | 5660 | Cc1cccc2cc(C)n(CCNc3cc(-c4ccc(C(=O)O)cc4)ncn3)c12 [Example 3, 4-{6-[2-(2,7-Dimethyl-indol-1-yl)-ethylamino]-pyrimidin-4-yl}-benzoic acid] |
| 3 | 2 | 2960 | 2610 | O=C(O)c1ccc(-c2cc(NCCn3c(Cl)cc4ccccc43)ncn2)cc1 [Example 4, 4-{6-[2-(2-Chloro-indol-1-yl)-ethylamino]-pyrimidin-4-yl}-benzoic acid] |
| 17 |  | 4970 |  | O=C(O)c1ccc(-c2cc(NCCn3c(Br)cc4ccccc43)ncn2)cc1 [Example 5, 4-{6-[2-(2-Bromo-indol-1-yl)-ethylamino]-pyrimidin-4-yl}-benzoic acid] |
